In ChEMBL document CHEMBL4295262, “Evaluation of the utility of stem-cell derived cardiomyocytes for drug proarrhythmic potential” (2019):

Tests used:
Conditions in all cases: human, ipsc-cm
[1] = (§1) Electrical activity assay on cell lines treated with a given drug. DMSO was used as a vehicle and a control, unblinded dofetilide was used as a control.
[2] = as §1; type: ADME, cell-based; parameters: FPDc: unit not given here
[3] = as §1; type: cell-based; parameters: APDc: unit not given here
[4] = as §1; remark: listed apart in the source
[5] = as §1; type: ADME, cell-based
[6] = as §1; type: ADME, cell-based; remark: listed apart in the source
[7] = as §1; remark: listed apart in the source
[8] = 0.0001 µM, concentration (um) 0.0001 uM
[9] = 0.001 µM, concentration (um) 0.001 uM
[10] = 0.01 µM, concentration (um) 0.01 uM
[11] = 0.1 µM, concentration (um) 0.1 uM
[12] = 10 µM, concentration (um) 10 uM
[13] = 100 µM, concentration (um) 100 uM
[14] = 0.9507 µM, concentration (um) 0.950736 uM
[15] = 3.004 µM, concentration (um) 3.00433 uM
[16] = 9.494 µM, concentration (um) 9.49367 uM
[17] = 30 µM, concentration (um) 30 uM

COc1ccc(CCN2CCC(Nc3nc4ccccc4n3Cc3ccc(F)cc3)CC2)cc1 [ASTEMIZOLE]
FPD measurement ([1]; 0.0001 µM): 55.11 FPDc
FPDc ([1]; 0.0001 µM): 55.11
FPD measurement ([1]; 0.001 µM): 55.33 FPDc
FPDc ([1]; 0.001 µM): 55.33
FPD measurement ([1]; 0.01 µM): 57.8 FPDc
FPDc ([1]; 0.01 µM): 57.8
FPD measurement ([1]; 0.1 µM): 75.34 FPDc
FPDc ([1]; 0.1 µM): 75.34
FPD measurement [2, 8]: 5 Values Out Of 5 Were Excluded Due To Quiescence Or 0 Apdc
FPDc [2, 8]: 53.45
FPD measurement [2, 9]: 5 Values Out Of 5 Were Excluded Due To Quiescence Or 0 Apdc
FPDc [2, 9]: 49.25
FPD measurement [2, 10]: 5 Values Out Of 5 Were Excluded Due To Quiescence Or 0 Apdc
FPDc [2, 10]: 53.23
FPD measurement [2, 11]: 5 Values Out Of 5 Were Excluded Due To Quiescence Or 0 Apdc
FPDc [2, 11]: 40.28
APDc [3, 8]: 54.17
FPD measurement [3, 8]: 54.17 FPDc
APDc [3, 9]: 53.88
FPD measurement [3, 9]: 53.88 FPDc
APDc [3, 10]: 57.03
FPD measurement [3, 10]: 57.03 FPDc
APDc [3, 11]: 77.9
FPD measurement [3, 11]: 77.9 FPDc
FPD measurement ([4]; 0.0001 µM): 1 Values Out Of 1 Were Excluded Due To Quiescence Or 0 Fpdc
FPDc ([4]; 0.0001 µM): 1 Values Out Of 1 Were Excluded Due To Quiescence Or 0 Fpdc
FPD measurement ([4]; 0.001 µM): 1 Values Out Of 1 Were Excluded Due To Quiescence Or 0 Fpdc
FPDc ([4]; 0.001 µM): 1 Values Out Of 1 Were Excluded Due To Quiescence Or 0 Fpdc
FPD measurement ([4]; 0.01 µM): 1 Values Out Of 1 Were Excluded Due To Quiescence Or 0 Fpdc
FPDc ([4]; 0.01 µM): 1 Values Out Of 1 Were Excluded Due To Quiescence Or 0 Fpdc
FPD measurement ([4]; 0.1 µM): 1 Values Out Of 1 Were Excluded Due To Quiescence Or 0 Fpdc
FPDc ([4]; 0.1 µM): 1 Values Out Of 1 Were Excluded Due To Quiescence Or 0 Fpdc

CC(C)N(CCC(C(N)=O)(c1ccccc1)c1ccccn1)C(C)C (stereo not drawn) [DISOPYRAMIDE]
FPD measurement [5, 11]: 49.69 FPDc
FPDc [5, 11]: 6 Values Out Of 6 Were Excluded Due To Quiescence Or 0 Fpdc
FPD measurement ([5]; 1 µM, concentration (um) 1 uM): 52.18 FPDc
FPDc ([5]; 1 µM, concentration (um) 1 uM): 6 Values Out Of 6 Were Excluded Due To Quiescence Or 0 Fpdc
FPD measurement [5, 12]: 63.31 FPDc
FPDc [5, 12]: 6 Values Out Of 6 Were Excluded Due To Quiescence Or 0 Fpdc
FPDc [5, 13]: 6 Values Out Of 6 Were Excluded Due To Quiescence Or 0 Fpdc
FPD measurement [6, 11]: 5 Values Out Of 5 Were Excluded Due To Quiescence Or 0 Apdc
FPDc [6, 11]: 23.29
FPD measurement ([6]; 1 µM, concentration (um) 1 uM): 5 Values Out Of 5 Were Excluded Due To Quiescence Or 0 Apdc
FPDc ([6]; 1 µM, concentration (um) 1 uM): 24.45
FPD measurement [6, 12]: 5 Values Out Of 5 Were Excluded Due To Quiescence Or 0 Apdc
FPDc [6, 12]: 24.5
FPD measurement [6, 13]: More Than Half The Wells Had A Quiescence Event Or Apdc Readings Of 0
FPDc [6, 13]: More Than Half The Wells Had A Quiescence Event Or Fpdc Readings Of 0
FPD measurement [2, 11]: 5 Values Out Of 5 Were Excluded Due To Quiescence Or 0 Apdc
FPDc [2, 11]: 48.43
FPD measurement ([2]; 1 µM, concentration (um) 1 uM): 5 Values Out Of 5 Were Excluded Due To Quiescence Or 0 Apdc
FPDc ([2]; 1 µM, concentration (um) 1 uM): 75.52
FPDc [2, 12]: 26.6
FPD measurement [2, 13]: 5 Values Out Of 5 Were Excluded Due To Quiescence Or 0 Apdc
FPDc [2, 13]: 18.51
FPD measurement ([4]; 0.1 µM): 1 Values Out Of 1 Were Excluded Due To Quiescence Or 0 Fpdc
FPDc ([4]; 0.1 µM): 1 Values Out Of 1 Were Excluded Due To Quiescence Or 0 Fpdc
FPD measurement ([4]; 1 µM): 1 Values Out Of 1 Were Excluded Due To Quiescence Or 0 Fpdc
FPDc ([4]; 1 µM): 1 Values Out Of 1 Were Excluded Due To Quiescence Or 0 Fpdc
FPD measurement ([4]; 10 µM): 1 Values Out Of 1 Were Excluded Due To Quiescence Or 0 Fpdc
FPDc ([4]; 10 µM): 1 Values Out Of 1 Were Excluded Due To Quiescence Or 0 Fpdc
FPD measurement ([4]; 100 µM): 1 Values Out Of 1 Were Excluded Due To Quiescence Or 0 Fpdc
FPDc ([4]; 100 µM): 1 Values Out Of 1 Were Excluded Due To Quiescence Or 0 Fpdc
APDc ([7]; 0.1 µM): 56.58
FPD measurement ([7]; 0.1 µM): 56.58 FPDc
APDc ([7]; 1 µM): 63.45
FPD measurement ([7]; 1 µM): 63.45 FPDc
APDc ([7]; 10 µM): 68.66
FPD measurement ([7]; 10 µM): 68.66 FPDc
APDc ([7]; 100 µM): 66.87
FPD measurement ([7]; 100 µM): 66.87 FPDc

C=C[C@H]1C[N@@]2CC[C@H]1C[C@@H]2[C@@H](O)c1ccnc2ccc(OC)cc12 [QUINIDINE]
FPD measurement [5, 14]: 114.6 FPDc
FPDc [5, 14]: 6 Values Out Of 6 Were Excluded Due To Quiescence Or 0 Fpdc
FPD measurement [5, 15]: 62.36 FPDc
FPDc [5, 15]: 6 Values Out Of 6 Were Excluded Due To Quiescence Or 0 Fpdc
FPDc [5, 16]: 6 Values Out Of 6 Were Excluded Due To Quiescence Or 0 Fpdc
FPDc [5, 17]: 6 Values Out Of 6 Were Excluded Due To Quiescence Or 0 Fpdc
FPD measurement [6, 14]: 5 Values Out Of 5 Were Excluded Due To Quiescence Or 0 Apdc
FPDc [6, 14]: 23.33
FPD measurement [6, 15]: 5 Values Out Of 5 Were Excluded Due To Quiescence Or 0 Apdc
FPDc [6, 15]: 5 Values Out Of 5 Were Excluded Due To Quiescence Or 0 Fpdc
FPD measurement [6, 16]: More Than Half The Wells Had A Quiescence Event Or Apdc Readings Of 0
FPDc [6, 16]: More Than Half The Wells Had A Quiescence Event Or Fpdc Readings Of 0
FPD measurement [6, 17]: More Than Half The Wells Had A Quiescence Event Or Apdc Readings Of 0
FPDc [6, 17]: More Than Half The Wells Had A Quiescence Event Or Fpdc Readings Of 0
FPD measurement ([1]; 0.9507 µM): 66.27 FPDc
FPDc ([1]; 0.9507 µM): 66.27
FPD measurement ([1]; 3.004 µM): More Than Half The Wells Had A Quiescence Event Or Fpdc Readings Of 0
FPDc ([1]; 3.004 µM): More Than Half The Wells Had A Quiescence Event Or Fpdc Readings Of 0
FPD measurement ([1]; 9.494 µM): More Than Half The Wells Had A Quiescence Event Or Fpdc Readings Of 0
FPDc ([1]; 9.494 µM): More Than Half The Wells Had A Quiescence Event Or Fpdc Readings Of 0
FPD measurement ([1]; 30 µM): More Than Half The Wells Had A Quiescence Event Or Fpdc Readings Of 0
FPDc ([1]; 30 µM): More Than Half The Wells Had A Quiescence Event Or Fpdc Readings Of 0
FPD measurement [2, 14]: 5 Values Out Of 5 Were Excluded Due To Quiescence Or 0 Apdc
FPDc [2, 14]: 51.68
FPD measurement [2, 15]: 5 Values Out Of 5 Were Excluded Due To Quiescence Or 0 Apdc
FPDc [2, 15]: 48.01
FPD measurement [2, 16]: 5 Values Out Of 5 Were Excluded Due To Quiescence Or 0 Apdc
FPDc [2, 16]: 56.69
FPD measurement [2, 17]: 5 Values Out Of 5 Were Excluded Due To Quiescence Or 0 Apdc
FPDc [2, 17]: 51.52
APDc ([7]; 0.9507 µM): 66.37
FPD measurement ([7]; 0.9507 µM): 66.37 FPDc
APDc ([7]; 3.004 µM): 68.44
FPD measurement ([7]; 3.004 µM): 68.44 FPDc
APDc ([7]; 9.494 µM): More Than Half The Wells Had A Quiescence Event Or Apdc Readings Of 0
FPD measurement ([7]; 9.494 µM): More Than Half The Wells Had A Quiescence Event Or Apdc Readings Of 0
APDc ([7]; 30 µM): More Than Half The Wells Had A Quiescence Event Or Apdc Readings Of 0
FPD measurement ([7]; 30 µM): More Than Half The Wells Had A Quiescence Event Or Apdc Readings Of 0
